Here are results for two compounds from patent publication US10779550B2, “Human milk oligosaccharides to ameliorate symptoms of stress” (ABBOTT LABORATORIES, priority 2012, dated 2020).

Marks after values point to notes of the source that are not given here.

Assay [1] deals with fecal samples taken from formula-fed infants (FF) (intestinal flora). In words: Anaerobic fermentation of HMOs with fecal inocula from formula-fed infants; GABA and agmatine in supernatant by GC/MS and LC/MS/MS. It is filed as cell-based, human. Conditions: for GABA, ratio HMO/blank / agmatine, ratio HMO/blank: formula fed infants, fermentation 37° C.; for GABA and agmatine relative to a blank (in words): formula-fed infants (FF) fecal fermentation cultures. The procedure:
(§1) Fecal samples from eight human babies, one group of four breast-fed and the other group of four formula-fed, were used as inocula for anaerobic fermentation (37° C.) of lacto-N-neotetraose (LNnT) and 6′-sialyllactose. Supernatants from the fermentation cultures were sampled at 0 hr, 3 hr, and 6 hr. A culture without addition of HMOs served as a control. A sample of the fermentation medium (blank), which constituted approximately 90% of the starting culture volume, was also analyzed.
(§2) Samples were extracted and split into equal parts for analysis on GC/MS and LC/MS/MS platforms. GABA and agmatine ions were identified in chromatograms, and peak area was integrated for quantitative analysis.

The test system of assay [2] is fecal samples taken from breast-fed infants (BF) (intestinal flora). In words: Anaerobic fermentation of HMOs with fecal inocula from breast-fed infants; GABA and agmatine in supernatant by GC/MS and LC/MS/MS. It is filed as cell-based, human. The conditions noted are these: for GABA, ratio HMO/blank / agmatine, ratio HMO/blank: breast fed infants, fermentation 37° C.; for GABA and agmatine relative to a blank (in words): breast-fed infants (BF) fecal fermentation cultures. The procedure:
as §1, §2

As for `CC(=O)N[C@H]1[C@H]([C@H](O)[C@H](O)CO)O[C@@](OC[C@H]2O[C@@H](O[C@H]3[C@H](O)[C@@H](O)[C@H](O)O[C@@H]3CO)[C@H](O)[C@@H](O)[C@H]2O)(C(=O)O)C[C@@H]1O` [6′SL, 6′-sialyllactose], the “GABA, ratio HMO/blank” value was 0.6 in assay [1] (0 h); 4.31 in assay [1] (3 h); 16.99^a in assay [1] (6 h); 1.22 in assay [2] (0 h); 3.53 in assay [2] (3 h); 5.32 in assay [2] (6 h). Besides, the “agmatine, ratio HMO/blank” value in assay [1] (0 h) is listed as 1.4; in assay [1] (3 h), 11.99; in assay [1] (6 h), 3.76; in assay [2] (0 h) it was 8.23^a; in assay [2] (3 h) it was 10.51; in assay [2] (6 h), 3.43. Besides, the “GABA and agmatine relative to a blank (in words)” value in assay [1] and in assay [2] was “dramatic increases” throughout.
With `CC(=O)N[C@H]1[C@H](O[C@H]2[C@@H](O)[C@@H](CO)O[C@@H](O[C@H]3[C@H](O)[C@@H](O)C(O)O[C@@H]3CO)[C@@H]2O)O[C@H](CO)[C@@H](O[C@@H]2O[C@H](CO)[C@H](O)[C@H](O)[C@H]2O)[C@@H]1O` (mixture of isomers) [LNnT, lacto-N-neotetraose], the “GABA, ratio HMO/blank” value in assay [1] (0 h) was 3.25; in assay [1] (3 h) it was 27.83^a; in assay [1] (6 h), 33.42^a; in assay [2] (0 h) it was 3.66; in assay [2] (3 h) it was 14.78; in assay [2] (6 h) it was 17.46^a. Besides, the “agmatine, ratio HMO/blank” value in assay [1] (0 h) is reported as 2.12; in assay [1] (3 h), 61.77^a; in assay [1] (6 h) it was 75.02^a; in assay [2] (0 h), 9.52^a; in assay [2] (3 h) it was 34.4; in assay [2] (6 h), 1.59. The “GABA and agmatine relative to a blank (in words)” value in assay [1] and in assay [2] was “dramatic increases” each time.
